In paper PMC9330922, “Genomewide Analysis and Biological Characterization of Cathelicidins with Potent Antimicrobial Activity and Low Cytotoxicity from Three Bat Species” (Antibiotics, 2022):
Read-outs that look alike come from different tables or passages of the source.

Experiments:
Assay in all cases: microbe, parasite or virus in culture
Type in all cases: cell-based
[1] = tested on: Candida albicans KCTC 7270; settings: WST colorimetric, YMB
Method: (§1) The antifungal activities of the peptides were evaluated against two yeast fungi, C. albicans KCTC 7270 and C. cuniculi KCTC 17232, and a mold fungus, M. hiemalis KCTC 26779. C. albicans and C. cuniculi were cultured in yeast mold broth (YMB; BD Science) agar at 35 °C and 25 °C, respectively. Cells were prepared in YMB for C. albicans and RPMI 1640 medium (with l-glutamine, without phenol red and sodium bicarbonate, Sigma Aldrich, Saint Louis, MO, USA) and adjusted to pH 7.0 with 0.165 M 3-(N-morpholino) propanesulfonic acid (MOPS) (iNtRON Biotechnology, Seoul, Korea), as previously described for C. cuniculi. According to the 0.5 McFarland standard, cells at 1.5 × 10^5 CFU/well were seeded into a 96-well plate containing 180 µL of fresh medium. Subsequently, peptides at final concentrations of 5–45 ug/mL (1.2–19.3 μM) peptides were added to each well. Ciclopirox (≥98% (HPLC), Sigma Aldrich) was used as a reference for the antifungal activity. The antifungal assay was conducted in the same manner as the antibacterial assay described above, according to the manufacturer’s protocol. Briefly, C. albicans and C. cuniculi were incubated at 35 °C for 6 h and 25 °C for 47 h, respectively, and 10 µL of the coloring reagent was added and further incubated for 18 h and 25 h. The MIC values were determined in the same way as for the antibacterial assay.

[2] = tested on: Cryptococcus cuniculi KCTC 17232; settings: WST colorimetric
Method: as §1

[3] = tested on: Mucor hiemalis KCTC 26779; settings: KCTC26779, concentration not given, peptides tested at 20, 40, and 80 µg/mL, fluvastatin sodium 70 µM, read-out: rate of metabolic inhibition
Method: To evaluate the antifungal activity of peptides against M. hiemalis, the metabolic activity of hyphae was measured using the same colorimetric assay as described above, with slight modifications to a previous study. Briefly, M. hiemalis was streaked onto malt extract broth (BD Biosciences) agar in a Petri dish and cultured at 25 °C for seven days. Then, conidia were collected from the dish by adding phosphate buffered saline (PBS) containing 0.05% Tween-80 (Sigma Aldrich) and filtered through sterilized 40 um cell strainer (SPL Life Science, Pocheon, Korea) to remove hyphae. After washing twice with PBS and centrifugation, 5 × 10^4 conidia were counted using a hemocytometer, suspended in 50 µL of RPMI 1640 as described above, and seeded in wells of a 96-well plate. After 16 h of incubation at 25 °C for hyphae formation, the plate was centrifuged at 3000× g and the media were changed. The peptides were then added at final concentrations of 20, 40, and 80 µg/mL. Fluvastatin sodium (70 µM; Sigma-Aldrich) was used as a reference for antifungal activity. […] The absorbance at 450 nm (for the treated group and control) and 650 nm (for the background) was measured for each well using a microplate reader (xMarkTM spectrophotometer; Bio-Rad). The metabolic activity of the fungal cells was calculated using the following equation. […]

For `Cc1cc(C2CCCCC2)n(O)c(=O)c1` [Ciclopirox], the MIC ([1]; Candida albicans, KCTC7270, value in brackets, 35 °C 6 h + 18 h, read-out: MIC (converted)) was 16.9 µM, the MIC ([1]; 1.5 × 10^5 CFU/well, 35 °C 6 h + 18 h coloring reagent) was 3.5 µg/mL and the MIC ([2]; Cryptococcus, KCTC17232, value in brackets, RPMI 1640 with MOPS pH 7.0, 25 °C 47 h + 25 h, read-out: MIC) was 2.4 µM. It also gave an MIC ([2]; RPMI 1640 with MOPS pH 7.0, 1.5 × 10^5 CFU/well, 25 °C 47 h + 25 h coloring reagent) of 0.5 µg/mL.
Compound `CC(C)n1c(/C=C/C(O)CC(O)CC(=O)O)c(-c2ccc(F)cc2)c2ccccc21` (centres unmarked) [fluvastatin sodium, Fluvastatin sodium] has an inhibition at 70 µM [3] of ~80%.
